Data on 23 compounds can be found in US10577363B2, “Substituted piperidine compounds” (EPIZYME, INC., priority 2014, dated 2020).

In general, IC50 refers to the point on the concentration scale where inhibition reaches its midpoint.

The target of experiment [1] is T1, SMYD3 (Homo sapiens (Human), UniProt Q9H7B4). Kind of experiment: SMYD3 biochemical assay (SPA, 3H-SAM methylation of MEKK2 protein substrate). The conditions noted are these: read-out: SMYD3 Biochem IC50*. The gist of the method: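 SPA methyltransferase format: tag-cleaved human SMYD3, insect-cell GST-MEKK2 protein substrate, 3H-SAM donor, 30 min RT enzyme–compound preincubation, 100 uM cold SAM quench.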

The target in experiment [2] is T1, SMYD3. Briefly: SMYD3 cell assay (Trimethyl-MEKK2 In-Cell Western in 293T/17 cells). In kind it is cell-based. The note with it: read-out: SMYD3 Cell IC50*. The gist of the method:
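In-Cell Western readout: methanol-fixed cells stained for trimethyl-MEKK2 and flag tag, ratio per well normalized to DMSO and background controls.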

T1 sequence (Q9H7B4 whole entry): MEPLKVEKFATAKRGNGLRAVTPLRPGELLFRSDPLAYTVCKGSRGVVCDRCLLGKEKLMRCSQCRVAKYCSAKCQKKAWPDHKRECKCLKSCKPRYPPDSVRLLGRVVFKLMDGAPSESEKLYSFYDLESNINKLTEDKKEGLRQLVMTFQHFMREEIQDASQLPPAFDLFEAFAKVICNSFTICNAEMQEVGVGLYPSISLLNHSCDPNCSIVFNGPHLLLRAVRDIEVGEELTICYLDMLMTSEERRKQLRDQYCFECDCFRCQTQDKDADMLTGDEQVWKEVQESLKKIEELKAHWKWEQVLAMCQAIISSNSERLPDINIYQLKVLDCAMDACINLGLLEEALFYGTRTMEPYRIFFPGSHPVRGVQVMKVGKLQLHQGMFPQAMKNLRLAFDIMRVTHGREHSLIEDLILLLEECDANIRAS

Take `O=C(N[C@H]1C[C@H]2CC[C@@H](C1)N2S(=O)(=O)N1CCC(NCCCN2CCOCC2)CC1)c1cc(C2CC2)on1` [compound 912, 5-cyclopropyl-N-((1R,3r,5S)-8-((4-((3-morpholinopropyl)amino)piperidin-1-yl)sulfonyl)-8-azabicyclo[3.2.1]octan-3-yl)isoxazole-3-carboxamide]: the IC50 came to 20.9 nM at SMYD3 [1] and 316 nM on SMYD3 [2].
The corresponding values for `C[C@H]1C[C@@H](NC(=O)c2cc(C3CC3)on2)CCN1S(=O)(=O)[C@H]1CCCNC1` [compound 913, 5-cyclopropyl-N-((2S,4S)-2-methyl-1-(((S)-piperidin-3-yl)sulfonyl)piperidin-4-yl)isoxazole-3-carboxamide] are 21.6 nM and 255 nM.
As to `O=C(N[C@H]1C[C@H]2CC[C@@H](C1)N2S(=O)(=O)N1CC2CCC(C1)N2CCCC(F)(F)F)c1cc(C2CC2)on1` [compound 914, 5-cyclopropyl-N-((1R,3r,5S)-8-((8-(4,4,4-trifluorobutyl)-3,8-diazabicyclo[3.2.1]octan-3-yl)sulfonyl)-8-azabicyclo[3.2.1]octan-3-yl)isoxazole-3-carboxamide], the values for the IC50 at SMYD3 [1] and at SMYD3 [2] were 22.9 nM and 299 nM, respectively.
The corresponding values for `C[C@H]1CN(S(=O)(=O)N2[C@@H]3CC[C@H]2C[C@@H](NC(=O)c2cc(C4CC4)on2)C3)[C@@H](C)CN1` [compound 915, 5-cyclopropyl-N-((1R,3S,5S)-8-(((2S,5S)-2,5-dimethylpiperazin-1-yl)sulfonyl)-8-azabicyclo[3.2.1]octan-3-yl)isoxazole-3-carboxamide] are 23.2 nM and 231 nM.
As to `COCCN(C)C1CCN(S(=O)(=O)N2[C@@H]3CC[C@H]2C[C@@H](NC(=O)c2cc(C4CC4)on2)C3)CC1` [compound 916, 5-cyclopropyl-N-((1R,3r,5S)-8-((4-((2-methoxyethyl)(methyl)amino)piperidin-1-yl)sulfonyl)-8-azabicyclo[3.2.1]octan-3-yl)isoxazole-3-carboxamide], the IC50 came to 23.3 nM on SMYD3 [1] and 247 nM at SMYD3 [2].
For `CN(CCN1CCCC1)C1CCN(S(=O)(=O)N2[C@@H]3CC[C@H]2C[C@@H](NC(=O)c2cc(C4CC4)on2)C3)CC1` [compound 917, 5-cyclopropyl-N-((1R,3r,5S)-8-((4-(methyl(2-(pyrrolidin-1-yl)ethyl)amino)piperidin-1-yl)sulfonyl)-8-azabicyclo[3.2.1]octan-3-yl)isoxazole-3-carboxamide] the same measures were 24.9 nM and 379 nM.
For `O=C(N[C@H]1C[C@H]2CC[C@@H](C1)N2S(=O)(=O)N1CCC(NCCC(F)(F)F)CC1)c1cc(C2CC2)on1` [compound 918, 5-cyclopropyl-N-((1R,3r,5S)-8-((4-((3,3,3-trifluoropropyl)amino)piperidin-1-yl)sulfonyl)-8-azabicyclo[3.2.1]octan-3-yl)isoxazole-3-carboxamide] the same measures were 25 nM and 148 nM.
Take `O=C(N[C@H]1C[C@H]2CC[C@@H](C1)N2S(=O)(=O)C[C@@H]1CCCCN1)c1cc(C2CC2)on1` [compound 919, 5-cyclopropyl-N-((1R,3S,5S)-8-((((S)-piperidin-2-yl)methyl)sulfonyl)-8-azabicyclo[3.2.1]octan-3-yl)isoxazole-3-carboxamide]: the IC50 stood at 25.4 nM at SMYD3 [1] and 243 nM at SMYD3 [2].
For `O=C(N[C@H]1C[C@H]2CC[C@@H](C1)N2S(=O)(=O)[C@H]1CC[C@@H](NCCN2CCOCC2)CC1)c1cc(C2CC2)on1` [compound 920, 5-cyclopropyl-N-((1R,3R,5S)-8-(((1s,4S)-4-((2-morpholinoethyl)amino)cyclohexyl)sulfonyl)-8-azabicyclo[3.2.1]octan-3-yl)isoxazole-3-carboxamide] the same measures were 26.6 nM and 499 nM.
With `CN(CCO)C1CCN(CCS(=O)(=O)N2[C@@H]3CC[C@H]2C[C@@H](NC(=O)c2cc(C4CC4)on2)C3)C1` (stereo partly drawn) [compound 921, 5-cyclopropyl-N-((1R,3r,5S)-8-((2-(3-((2-hydroxyethyl)(methyl)amino)pyrrolidin-1-yl)ethyl)sulfonyl)-8-azabicyclo[3.2.1]octan-3-yl)isoxazole-3-carboxamide], the values for the IC50 at SMYD3 [1] and at SMYD3 [2] were 27.7 nM and 373 nM, respectively.
For `O=C(N[C@H]1C[C@H]2CC[C@@H](C1)N2S(=O)(=O)N1CCC(NCCN2CCCC2)CC1)c1cc(C2CC2)on1` [compound 922, 5-cyclopropyl-N-((1R,3r,5S)-8-((4-((2-(pyrrolidin-1-yl)ethyl)amino)piperidin-1-yl)sulfonyl)-8-azabicyclo[3.2.1]octan-3-yl)isoxazole-3-carboxamide] the same measures were 28.1 nM and 282 nM.
Turning to `C[C@@H](NC1CCN(S(=O)(=O)N2[C@@H]3CC[C@H]2C[C@@H](NC(=O)c2cc(C4CC4)on2)C3)CC1)c1ccccc1` [compound 923, 5-cyclopropyl-N-((1R,3R,5S)-8-((4-(((R)-1-phenylethyl)amino)piperidin-1-yl)sulfonyl)-8-azabicyclo[3.2.1]octan-3-yl)isoxazole-3-carboxamide], the IC50 on SMYD3 [1] is 28.6 nM; at SMYD3 [2], 310 nM.
For `O=C(N[C@H]1C[C@H]2CC[C@@H](C1)N2S(=O)(=O)N1CCC(NCc2c(F)cccc2F)CC1)c1cc(C2CC2)on1` [compound 924, 5-cyclopropyl-N-((1R,3r,5S)-8-((4-((2,6-difluorobenzyl)amino)piperidin-1-yl)sulfonyl)-8-azabicyclo[3.2.1]octan-3-yl)isoxazole-3-carboxamide], the IC50 at SMYD3 [1] is 28.9 nM; at SMYD3 [2], 670 nM.
As to `CC(C)C1CN(S(=O)(=O)N2[C@@H]3CC[C@H]2C[C@@H](NC(=O)c2cc(C4CC4)on2)C3)CCN1` (stereo partly drawn) [compound 925, 5-cyclopropyl-N-((1R,3r,5S)-8-((3-isopropylpiperazin-1-yl)sulfonyl)-8-azabicyclo[3.2.1]octan-3-yl)isoxazole-3-carboxamide], the IC50 came to 29.9 nM at SMYD3 [1] and 340 nM on SMYD3 [2].
Take `CN1CCC[C@@H](S(=O)(=O)N2[C@@H]3CC[C@H]2C[C@@H](NC(=O)c2cc(C4CC4)on2)C3)C1` [compound 926, 5-cyclopropyl-N-((1R,3R,5S)-8-(((R)-1-methylpiperidin-3-yl)sulfonyl)-8-azabicyclo[3.2.1]octan-3-yl)isoxazole-3-carboxamide]: the IC50 amounted to 30 nM at SMYD3 [1] and 209 nM at SMYD3 [2].
For `C[C@H](NC1CCN(S(=O)(=O)N2[C@@H]3CC[C@H]2C[C@@H](NC(=O)c2cc(C4CC4)on2)C3)CC1)c1ccccc1` [compound 927, 5-cyclopropyl-N-((1R,3S,5S)-8-((4-(((S)-1-phenylethyl)amino)piperidin-1-yl)sulfonyl)-8-azabicyclo[3.2.1]octan-3-yl)isoxazole-3-carboxamide] the same measures were 30.9 nM and 403 nM.
The corresponding values for `CC(C)NC1CCN(S(=O)(=O)N2[C@@H]3CC[C@H]2C[C@@H](NC(=O)c2cc(C4CC4)on2)C3)CC1` [compound 928, 5-cyclopropyl-N-((1R,3r,5S)-8-((4-(isopropylamino)piperidin-1-yl)sulfonyl)-8-azabicyclo[3.2.1]octan-3-yl)isoxazole-3-carboxamide] are 36.2 nM and 512 nM.
Consider `NCc1ccc(S(=O)(=O)N2[C@@H]3CC[C@H]2C[C@@H](NC(=O)c2cc(C4CC4)on2)C3)cc1` [compound 929, N-((1R,3r,5S)-8-((4-(aminomethyl)phenyl)sulfonyl)-8-azabicyclo[3.2.1]octan-3-yl)-5-cyclopropylisoxazole-3-carboxamide], for which the values for the IC50 on SMYD3 [1] and at SMYD3 [2] were 36.8 nM and at least 10000 nM, respectively.
The corresponding values for `O=C(N[C@H]1C[C@H]2CC[C@@H](C1)N2S(=O)(=O)C[C@@H]1CCCN1)c1cc(C2CC2)on1` [compound 930, 5-cyclopropyl-N-((1R,3S,5S)-8-((((S)-pyrrolidin-2-yl)methyl)sulfonyl)-8-azabicyclo[3.2.1]octan-3-yl)isoxazole-3-carboxamide] are 37.1 nM and 351 nM.
The corresponding values for `C[C@H](N)c1ccc(S(=O)(=O)N2[C@@H]3CC[C@H]2C[C@@H](NC(=O)c2cc(C4CC4)on2)C3)cc1` [compound 931, N-((1R,3S,5S)-8-((4-((S)-1-aminoethyl)phenyl)sulfonyl)-8-azabicyclo[3.2.1]octan-3-yl)-5-cyclopropylisoxazole-3-carboxamide] are 37.2 nM and 526 nM.
The corresponding values for `C[C@H]1C[C@@H](NC(=O)c2cc(C3CC3)on2)CCN1S(=O)(=O)N1C[C@H]2CC[C@@H](C1)[C@@H]2N` [compound 932, N-((2S,4S)-1-(((1R,5S,8R)-8-amino-3-azabicyclo[3.2.1]octan-3-yl)sulfonyl)-2-methylpiperidin-4-yl)-5-cyclopropylisoxazole-3-carboxamide] are 38.7 nM and 351 nM.
As to `CN1CC2CC(C1)N2S(=O)(=O)N1[C@@H]2CC[C@H]1C[C@@H](NC(=O)c1cc(C3CC3)on1)C2` [compound 933, 5-cyclopropyl-N-((1R,3r,5S)-8-((3-methyl-3,6-diazabicyclo[3.1.1]heptan-6-yl)sulfonyl)-8-azabicyclo[3.2.1]octan-3-yl)isoxazole-3-carboxamide], the IC50 at SMYD3 [1] amounted to 42.4 nM; at SMYD3 [2], 91.9 nM.
The corresponding values for `C[C@@H](N)c1ccc(S(=O)(=O)N2[C@@H]3CC[C@H]2C[C@@H](NC(=O)c2cc(C4CC4)on2)C3)cc1` [compound 934, N-((1R,3R,5S)-8-((4-((R)-1-aminoethyl)phenyl)sulfonyl)-8-azabicyclo[3.2.1]octan-3-yl)-5-cyclopropylisoxazole-3-carboxamide] are 42.4 nM and 494 nM.
